Assay results reported in the Kinase Knowledgebase extract (Sharma et al. 2016).

Molecular target: PIK3CA (human) (UniProt P42336)
Assay: Inhibition of PIK3CA Kinase Activity

Chain of PIK3CA (human) (P42336 whole entry, looked up): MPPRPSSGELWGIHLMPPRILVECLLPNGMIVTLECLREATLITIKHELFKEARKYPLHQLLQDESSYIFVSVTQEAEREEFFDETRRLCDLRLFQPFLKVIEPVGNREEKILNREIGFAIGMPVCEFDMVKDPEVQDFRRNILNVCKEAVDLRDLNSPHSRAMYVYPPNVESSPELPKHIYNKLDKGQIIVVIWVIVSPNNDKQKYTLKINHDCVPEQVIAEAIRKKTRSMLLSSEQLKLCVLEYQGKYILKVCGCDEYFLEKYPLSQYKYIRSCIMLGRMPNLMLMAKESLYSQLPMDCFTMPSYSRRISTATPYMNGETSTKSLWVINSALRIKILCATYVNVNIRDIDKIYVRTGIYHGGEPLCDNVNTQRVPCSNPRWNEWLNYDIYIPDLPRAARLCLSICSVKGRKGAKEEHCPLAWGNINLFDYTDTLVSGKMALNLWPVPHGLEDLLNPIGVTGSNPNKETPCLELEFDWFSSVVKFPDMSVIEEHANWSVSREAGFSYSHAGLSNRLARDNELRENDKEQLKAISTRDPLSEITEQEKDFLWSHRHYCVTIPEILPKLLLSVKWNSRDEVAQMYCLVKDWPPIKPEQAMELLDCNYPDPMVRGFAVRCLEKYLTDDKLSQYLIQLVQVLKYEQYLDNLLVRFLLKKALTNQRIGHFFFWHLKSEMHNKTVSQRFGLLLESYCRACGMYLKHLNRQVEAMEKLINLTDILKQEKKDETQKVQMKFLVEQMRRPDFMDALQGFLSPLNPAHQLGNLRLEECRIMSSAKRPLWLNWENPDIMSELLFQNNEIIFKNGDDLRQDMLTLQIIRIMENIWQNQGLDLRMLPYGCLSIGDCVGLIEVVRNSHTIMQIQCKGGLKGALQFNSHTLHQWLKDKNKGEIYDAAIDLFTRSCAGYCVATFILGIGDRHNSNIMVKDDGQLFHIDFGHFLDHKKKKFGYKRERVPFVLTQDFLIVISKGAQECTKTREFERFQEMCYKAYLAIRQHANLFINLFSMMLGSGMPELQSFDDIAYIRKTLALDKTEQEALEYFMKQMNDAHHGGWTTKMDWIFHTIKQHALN

| SMILES | IC50 [µM] |
| --- | --- |
| Cc1nccn1-c1nc(-c2cnc(N)nc2)nc(N2CCOCC2)n1 | < 1 |
| N#CCCc1nccn1-c1nc(-c2cnc(N)nc2)nc(N2CCOCC2)n1 | < 1 |
| Cc1nc2ccccc2n1-c1nc(-c2cccc3[nH]ccc23)nc(N2CCOCC2)n1 | < 1 |
| Cc1ccn(-c2nc(-c3cccc4[nH]ccc34)nc(N3CCOCC3)n2)n1 | < 1 |
| Cc1ccc2c(c1)ncn2-c1nc(-c2cccc3[nH]ccc23)nc(N2CCOCC2)n1 | < 1 |
| Nc1ccc(-c2nc(N3CCOCC3)nc(-n3ccc(C(F)(F)F)n3)n2)cn1 | < 1 |
| CC(C)c1nc2ccccc2n1-c1nc(-c2cccc3[nH]ccc23)nc(N2CCOCC2)n1 | < 1 |
| N#CCCc1nccn1-c1nc(-c2cccc3[nH]ccc23)nc(N2CCOCC2)n1 | < 1 |
| CCc1nc2ccccc2n1-c1nc(-c2cnc(N)nc2)nc(N2CCOCC2)n1 | < 1 |
| Cc1nccn1-c1nc(-c2cccc3[nH]ccc23)nc(N2CCOCC2)n1 | < 1 |
| c1cc(-c2nc(N3CCOCC3)nc(-n3ccnc3)n2)c2cc[nH]c2c1 | < 1 |
| CCCCN(C)Cc1c(C)nc(CC)n1-c1nc(-c2cccc3[nH]ccc23)nc(N2CCOCC2)n1 | < 1 |
| Cc1nccn1-c1nc(-c2cccc3[nH]ncc23)nc(N2CCOCC2)n1 | < 1 |
| Cc1ccn(-c2nc(-c3cnc(N)nc3)nc(N3CCOCC3)n2)n1 | < 1 |
| Cc1cc(C)n(-c2nc(-c3cccc4[nH]ccc34)nc(N3CCOCC3)n2)n1 | < 1 |
| Oc1cccc(-c2nc(N3CCOCC3)nc(-n3c(C(F)F)nc4ccccc43)n2)c1 | < 1 |
| CC#Cc1cn(-c2nc(-c3cccc4[nH]ccc34)nc(N3CCOCC3)n2)c(CC)n1 | < 1 |
| CCCc1nc2ccccc2n1-c1nc(-c2cccc3[nH]ccc23)nc(N2CCOCC2)n1 | < 1 |
| Cc1nc2ccccc2n1-c1nc(-c2cccc(CO)c2)nc(N2CCOCC2)n1 | < 1 |
| Nc1ccc(-c2nc(N3CCOCC3)nc(-n3ncc4c3CCCC4)n2)cn1 | < 1 |
| Cc1nc2ccccc2n1-c1nc(-c2ccc(N)nc2)nc(N2CCOCC2)n1 | < 1 |

| SMILES | IC50 [µM] |
| --- | --- |
| O=C(O)c1cc2ccccc2n1-c1nc(-c2cccc3[nH]ccc23)nc(N2CCOCC2)n1 | < 1 |
| CC(C)Cc1nccn1-c1nc(-c2cccc3[nH]ccc23)nc(N2CCOCC2)n1 | < 1 |
| c1ccc(-c2nccn2-c2nc(-c3cccc4[nH]ccc34)nc(N3CCOCC3)n2)cc1 | < 1 |
| CCCCc1nccn1-c1nc(-c2cccc3[nH]ccc23)nc(N2CCOCC2)n1 | < 1 |
| COCCNCc1cn(-c2nc(-c3cccc4[nH]ccc34)nc(N3CCOCC3)n2)c(C)n1 | < 1 |
| Cc1cc(C(F)(F)F)n(-c2nc(-c3cnc(N)nc3)nc(N3CCOCC3)n2)n1 | < 1 |
| CCc1nccn1-c1nc(-c2cccc3[nH]ccc23)nc(N2CCOCC2)n1 | < 1 |
| O=C(NC1CC1)c1cc2ccccc2n1-c1nc(-c2cccc3[nH]ccc23)nc(N2CCOCC2)n1 | < 1 |
| CC(C)c1nccn1-c1nc(-c2cnc(N)nc2)nc(N2CCOCC2)n1 | < 1 |
| CCc1nccn1-c1nc(-c2cnc(N)nc2)nc(N2CCOCC2)n1 | < 1 |
| Nc1ncc(-c2nc(N3CCOCC3)nc(-n3ncc4c3CCCC4)n2)cn1 | < 1 |
| Cc1cc(C)n(-c2nc(-c3ccc(N)nc3)nc(N3CCOCC3)n2)n1 | < 1 |
| CC(C)c1nccn1-c1nc(-c2cccc3[nH]ccc23)nc(N2CCOCC2)n1 | < 1 |
| Cc1nccn1-c1nc(-c2cccc(CO)c2)nc(N2CCOCC2)n1 | < 1 |
| Cc1nc(N)ncc1-c1nc(N2CCOCC2)nc(-n2ccnc2C(C)C)n1 | < 1 |
| Cc1nccn1-c1nc(-c2cccc(O)c2)nc(N2CCOCC2)n1 | < 1 |
| Cc1nc(CO)cn1-c1nc(-c2cccc3[nH]ccc23)nc(N2CCOCC2)n1 | < 1 |
| CCCCN(C)Cc1cn(-c2nc(-c3cccc4[nH]ccc34)nc(N3CCOCC3)n2)c(C)n1 | < 1 |
| Cc1ccn(-c2nc(-c3ccc(N)nc3)nc(N3CCOCC3)n2)n1 | < 1 |
| CCc1nc(C)c(CO)n1-c1nc(-c2cccc3[nH]ccc23)nc(N2CCOCC2)n1 | < 1 |
| c1ccc2c(c1)nc(C1CC1)n2-c1nc(-c2cccc3[nH]ccc23)nc(N2CCOCC2)n1 | < 1 |

More lines, now with the values ahead:

| IC50 [µM] | SMILES |
| --- | --- |
| < 1 | C=Cc1nccn1-c1nc(-c2cccc3[nH]ccc23)nc(N2CCOCC2)n1 |
| < 1 | C#Cc1cn(-c2nc(-c3cccc4[nH]ccc34)nc(N3CCOCC3)n2)c(CC)n1 |
| < 1 | CCCc1nccn1-c1nc(-c2cccc3[nH]ccc23)nc(N2CCOCC2)n1 |
| < 1 | CCCc1cn(-c2nc(-c3cccc4[nH]ccc34)nc(N3CCOCC3)n2)c(CC)n1 |
| < 1 | Cc1nc(CN2CCCC2)cn1-c1nc(-c2cccc3[nH]ccc23)nc(N2CCOCC2)n1 |
| < 1 | Cc1cn(-c2nc(-c3cccc4[nH]ccc34)nc(N3CCOCC3)n2)cn1 |
| < 1 | CCCCc1nccn1-c1nc(-c2cnc(N)nc2)nc(N2CCOCC2)n1 |
| < 1 | C[C@H]1COCCN1c1nc(-c2cnc(N)nc2)nc(-n2c(C(F)F)nc3ccccc32)n1 |
| < 1 | Cc1nc2ccccc2n1-c1nc(-c2cc(O)cc(F)c2)nc(N2CCOCC2)n1 |
| < 1 | Cc1nc(CNC2CC2)cn1-c1nc(-c2cccc3[nH]ccc23)nc(N2CCOCC2)n1 |
| < 1 | CCN(CC)CCN(C)Cc1cn(-c2nc(-c3cccc4[nH]ccc34)nc(N3CCOCC3)n2)cn1 |
| < 1 | COC(=O)CCc1nc2ccccc2n1-c1nc(-c2cccc3[nH]ccc23)nc(N2CCOCC2)n1 |
| < 1 | COCCNC(=O)c1cc2ccccc2n1-c1nc(-c2cccc3[nH]ccc23)nc(N2CCOCC2)n1 |
| < 1 | CC(C)c1nc2ccccc2n1-c1nc(-c2cnc(N)nc2)nc(N2CCOCC2)n1 |
| < 1 | Nc1ccc2c(c1)nc(C(F)(F)F)n2-c1nc(-c2cccc3[nH]ccc23)nc(N2CCOCC2)n1 |
| < 1 | CCCc1nc2ccccc2n1-c1nc(-c2cnc(N)nc2)nc(N2CCOCC2)n1 |
| < 1 | Nc1ncc(-c2nc(N3CCOCC3)nc(-n3c(C(F)F)nc4ccccc43)n2)cn1 |
| < 1 | CCCCc1nc2ccccc2n1-c1nc(-c2cnc(N)nc2)nc(N2CCOCC2)n1 |
| < 1 | Cc1cc(C(F)(F)F)n(-c2nc(-c3ccc(N)nc3)nc(N3CCOCC3)n2)n1 |

| IC50 [µM] | SMILES |
| --- | --- |
| < 1 | CCc1nc(C#Cc2ccccn2)cn1-c1nc(-c2cccc3[nH]ccc23)nc(N2CCOCC2)n1 |
| < 1 | FC(F)(F)c1nc2ccccc2n1-c1nc(-c2cccc3[nH]ccc23)nc(N2CCOCC2)n1 |
| < 1 | N#CC=Cc1nccn1-c1nc(-c2cccc3[nH]ccc23)nc(N2CCOCC2)n1 |
| < 1 | CCc1cn(-c2nc(-c3cccc4[nH]ccc34)nc(N3CCOCC3)n2)c(CC)n1 |
| < 1 | CCCc1nccn1-c1nc(-c2ccnc3[nH]ccc23)nc(N2CCOCC2)n1 |
| < 1 | CCc1nc(C)cn1-c1nc(-c2cccc3[nH]ccc23)nc(N2CCOCC2)n1 |
| < 1 | c1cc(-c2nc(N3CCOCC3)nc(-n3cnc(CN4CCCC4)c3)n2)c2cc[nH]c2c1 |
| < 1 | CCc1nc2ccccc2n1-c1nc(-c2cccc3[nH]ccc23)nc(N2CCOCC2)n1 |
| < 1 | FC(F)c1nc2ccccc2n1-c1nc(-c2cccc3[nH]ccc23)nc(N2CCOCC2)n1 |
| < 1 | CCc1nccn1-c1nc(-c2ccnc3[nH]ccc23)nc(N2CCOCC2)n1 |
| < 1 | COc1nc(N)ncc1-c1nc(N2CCOCC2)nc(-n2ccnc2C)n1 |
| < 1 | CCCCc1nc2ccccc2n1-c1nc(-c2cccc3[nH]ccc23)nc(N2CCOCC2)n1 |
| < 1 | Cc1nc2ccccc2n1-c1nc(-c2cccc(O)c2)nc(N2CCOCC2)n1 |
| < 1 | Nc1ncc(-c2nc(N3CCOCC3)nc(-n3ccc(C(F)(F)F)n3)n2)cn1 |
| < 1 | OCc1cn(-c2nc(-c3cccc4[nH]ccc34)nc(N3CCOCC3)n2)cn1 |
| < 1 | CC(=O)Nc1ccc(-c2nc(N3CCOCC3)nc(-n3c(C)nc4ccccc43)n2)cn1 |
| < 1 | Cc1nc2ccccc2n1-c1nc(-c2cnc(N)nc2)nc(N2CCOCC2)n1 |
| < 1 | c1ccc(Cc2nccn2-c2nc(-c3cccc4[nH]ccc34)nc(N3CCOCC3)n2)cc1 |
